The structures appear in SMILES notation. Starred links: 1 amine or outer side, 2 acyl side, 3 side chain; linkers in the order of their positions; H or OH if unused. Non-standard residues stand in square brackets, D forms with d. Residues, ends and D or L forms follow the SMILES beside them. Groups on a side chain read outwards from the residue. *: point of attachment. C18 diacid = O=C(O)CCCCCCCCCCCCCCCCC(=O)*; C16 diacid = O=C(O)CCCCCCCCCCCCCCC(=O)*; γGlu = O=C(O)[C@H](CCC(=O)[*:2])N[*:1]; Glutaryl = O=C(CCCC(=O)[*:2])[*:1]; AEEA = NCCOCCOCC(=O)O; Aib = CC(C)(N)C(=O)O

As a reminder, the Kb is the equilibrium dissociation constant of an antagonist, usually derived from a functional assay.

In one series the target is T1, human GIP receptor (Homo sapiens, UniProt P48546).
T1 construct: host or cells: HEK-293 cells, transient transfection (Lipofectamine 2000), cDNA in pCMV-Script vector
T1 sequence (P48546 22-466): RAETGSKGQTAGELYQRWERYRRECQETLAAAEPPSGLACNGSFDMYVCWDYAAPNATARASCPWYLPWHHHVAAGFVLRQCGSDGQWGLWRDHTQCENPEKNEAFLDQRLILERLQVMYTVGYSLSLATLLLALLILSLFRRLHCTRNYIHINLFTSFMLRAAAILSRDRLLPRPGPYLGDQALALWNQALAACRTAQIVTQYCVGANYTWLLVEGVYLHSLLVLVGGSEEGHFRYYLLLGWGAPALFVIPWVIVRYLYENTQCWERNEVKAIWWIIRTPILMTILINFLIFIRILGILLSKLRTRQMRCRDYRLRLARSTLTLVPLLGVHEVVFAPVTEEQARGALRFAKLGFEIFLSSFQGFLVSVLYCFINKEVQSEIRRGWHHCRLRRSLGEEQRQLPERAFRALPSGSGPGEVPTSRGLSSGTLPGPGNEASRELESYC
The experiment in a line: cAMP assay Alternative 2 (Gaddum assay), antagonist potency pKb. The series is classed as cell-based. The settings on record: Table 2C; Gaddum equation, single antagonist dose; HEK-293 hGIPR; read-out: nM (Kb). The protocol: HEK293 cells were cultured in 10% CO2 and 37° C. in Dulbecco's modified Eagle's medium supplemented with 10% fetal bovine serum, 2 mM glutamine, 180 units/ml penicillin, and 45 µg/ml streptomycin. Transient transfection with hGIPR for the CisBio assay from Table 2C was performed by using Lipofectamine 2000.
Antagonist potency (pKb) was estimated in a functional setting. The estimated pKb values were calculated from the shifts of the agonist-concentration-response curves in the presence of a single dose of GIP peptide antagonists using the Gaddum equation: pKb=log(DR-1)-log(B), where DR (EC50′/EC50) is the dose ratio calculated from EC50 of GIP1-42 obtained in the presence and absence (EC50) of antagonist, and B is the antagonist concentration used.
The in vitro functional assessment of compounds towards human GIP receptor was determined in HEK-293 cells transiently expressing the receptor. On the day of the assay, cells were resuspended in HBSS buffer (Gibco, 14025-50) supplemented with […] (Gibco, 15630-106), 0.1% Pluronic F-68 (Gibco, 24040-032) and 0.1% casein (Sigma, C4765), and plated in 384-well plates at a density of 3500 cells/well. The GIP peptide analogues of the present disclosure were diluted in HBSS buffer supplemented with 20 mM HEPES, 0.1% pluronic, 0.1% casein and 500 uM IBMX. […] Increasing dose of agonist (GIP1-42) was subsequently added to cells and incubated for additionally 30 min at 37° C. The intracellular cAMP was quantitatively determined using the CisBio cAMP Dynamic 2 HTRF Assay Kit. The assay is based on a competition between native cAMP produced by cells and cAMP labeled with the dye d2 for binding to a cryptate labeled antibody. The specific signal (i.e. energy transfer signal) is inversely proportional to the concentration of cAMP in the sample.
The cAMP-d2 conjugate and the antibody anti-cAMP-Cryptate, both diluted in lysis buffer provided in the kit, were added to the cells according to the manufacturer's protocol. The resulting competitive assay was incubated for 60 minutes at room temperature, and the signal was detected by using a PerkinElmer Envision® instrument with excitation at 320 nm and emission at 665 nm and 620 nm. The HTRF ratio (emission at 665 nm/620 nm*10,000) is inversely proportional to the amount of cAMP present and is converted to nM cAMP per well using a cAMP standard curve.

Series [1] can be described thus: Physical stability: fibril formation in Thioflavin T (ThT) assay with agitation. Format: physicochemical. The settings on record: 25° C., agitation. Summed up: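 Peptides at 1, 5, 7.5 or 15 mg/ml in 50 mM sodium phosphate pH 7.4 or in water adjusted to pH 7.4 with NaOH, filtered 0.22 μm, with ThT added. Wells held a 3 mm silica bead under 300 rpm orbital agitation at 25° C. Emission at 486 nm tracked continuously; lag time = 10% of transition above baseline.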

Series [2] is described as follows: Solubility by visual inspection of peptide solutions. The series is classed as physicochemical. Summed up:
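Peptides dissolved at 1, 5, 7.5 or 15 mg/ml in 50 mM sodium phosphate pH 7.4 or water adjusted to pH 7.4 with NaOH, with gentle mixing. Immediate solubility judged visually as a clear, colorless solution.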

For `CC[C@H](C)[C@H](NC(=O)[C@H](CCCCN)NC(=O)[C@H](CCC(=O)O)NC(=O)[C@H](CC(C)C)NC(=O)C(C)(C)NC(=O)[C@@H](NC(=O)[C@H](CO)NC(=O)[C@H](Cc1ccc(O)cc1)NC(=O)[C@H](CCC(=O)O)NC(=O)[C@H](CO)NC(=O)[C@@H](NC(=O)[C@H](Cc1ccccc1)NC(=O)[C@@H](NC(=O)CNC(=O)CCCC(=O)O)[C@@H](C)O)[C@@H](C)CC)[C@@H](C)CC)C(=O)N[C@@H](CCCCNC(=O)COCCOCCNC(=O)COCCOCCNC(=O)CC[C@H](NC(=O)CCCCCCCCCCCCCCCCC(=O)O)C(=O)O)C(=O)N[C@@H](CCC(N)=O)C(=O)N[C@@H](CCC(N)=O)C(=O)N[C@@H](CCC(=O)O)C(=O)N[C@@H](Cc1ccccc1)C(=O)N[C@H](C(=O)N[C@@H](CCC(=O)O)C(=O)N[C@@H](Cc1c[nH]c2ccccc12)C(=O)N[C@@H](CC(C)C)C(=O)N[C@@H](CC(C)C)C(=O)N[C@@H](C)C(=O)N[C@@H](CCC(N)=O)C(=O)N[C@@H](CCCCN)C(=O)N1CCC[C@H]1C(=O)N[C@@H](CO)C(=O)N[C@@H](CO)C(=O)NCC(=O)N[C@@H](C)C(=O)N1CCC[C@H]1C(=O)N1CCC[C@H]1C(=O)N1CCC[C@H]1C(=O)N[C@@H](CO)C(N)=O)C(C)C` [AT713] (Glutaryl-GTFISEYSI[Aib]LEKIK([AEEA-AEEA-γGlu-C18 diacid])QQEFVEWLLAQKPSSGAPPPS-NH2), the Kb on human GIP receptor was 0.31 nM. In addition, the “Avr lag time (h)” value in series [1] (1 mg/ml, TFA, Phosphate (7.4)) is given as “fnd (Fnd = fibrils not detected within experiment time (96 hours) with agitation.)”; in series [1] (7.5 mg/ml, Na, MilliQ (8)), “fnd (Fnd = fibrils not detected within experiment time (96 hours) with agitation.)”; in series [1] (15 mg/ml, Na, MilliQ (8)), “fnd (Fnd = fibrils not detected within experiment time (96 hours) with agitation.)”. Also, the Visual appearance result in series [2] (1 mg/ml, TFA, Phosphate (7.4)) is recorded as “Clear”; in series [2] (7.5 mg/ml, Na, MilliQ (8)), “Clear”; in series [2] (15 mg/ml, Na, MilliQ (8)), “Clear”.

With `CC[C@H](C)[C@H](NC(=O)[C@H](CO)NC(=O)[C@H](Cc1ccc(O)cc1)NC(=O)[C@H](CC(=O)O)NC(=O)[C@H](CO)NC(=O)[C@@H](NC(=O)[C@H](Cc1ccccc1)NC(=O)[C@@H](NC(=O)CNC(=O)[C@@H](N)CCC(=O)O)[C@@H](C)O)[C@@H](C)CC)C(=O)N[C@@H](C)C(=O)N[C@@H](CCSC)C(=O)N[C@@H](CC(=O)O)C(=O)N[C@@H](CCCCN)C(=O)N[C@H](C(=O)N[C@@H](Cc1c[nH]cn1)C(=O)N[C@@H](CCC(N)=O)C(=O)N[C@@H](CCC(N)=O)C(=O)N[C@@H](CC(=O)O)C(=O)N[C@@H](Cc1ccccc1)C(=O)N[C@H](C(=O)N[C@@H](CCC(=O)O)C(=O)N[C@@H](Cc1c[nH]c2ccccc12)C(=O)N[C@@H](CC(C)C)C(=O)N[C@@H](CC(C)C)C(=O)N[C@@H](C)C(=O)N[C@@H](CCC(N)=O)C(=O)N[C@@H](CCCCN)C(=O)N1CCC[C@H]1C(=O)N[C@@H](CO)C(=O)N[C@@H](CO)C(=O)N[C@@H](CCCCNC(=O)CCCCCCCCCCCCCCC(=O)O)C(=O)N[C@@H](C)C(=O)N1CCC[C@H]1C(=O)N1CCC[C@H]1C(=O)N1CCC[C@H]1C(=O)N[C@@H](CO)C(=O)O)C(C)C)[C@@H](C)CC` [AT743] (H-EGTFISDYSIAMDKIHQQDFVEWLLAQKPSSK(C16 diacid)APPPS-OH; N-terminus assumed), the Kb at human GIP receptor was 19 nM. For the same compound, in series [1] (1 mg/ml, TFA, Phosphate (7.4)), the “Avr lag time (h)” value is reported as “fnd (Fnd = fibrils not detected within experiment time (96 hours) with agitation.)”. The Visual appearance result in series [2] (1 mg/ml, TFA, Phosphate (7.4)) is “Clear”.
